The values that follow come from paper PMC11847542 (2025).

The subject of assay [1] is KRAS RNA G4-c (KRAS RG4) (RNA, G4) AAGGUGGCGGCGGCUCG
The assay is described as follows: thiazole orange displacement, fluorescence. The following applies: 100 mM K+; 10 mM Tris-HCl pH 7.4; 0.25 μM RNA; tracer 0.5 μM thiazole orange displaced.

Assay [2] shares this test system. The assay is described as follows: CD melting. The following applies: 1 mM K+, 10 mM Tris-HCl pH 7.4, 2 μM RNA.
For assay [3], the system named is KRAS RNA G4-a (RNA, G4) GCGGCGGCGGAGGCAGCA
The assay is described as follows: CD melting. Particulars: 1 mM K+; 10 mM Tris-HCl pH 7.4; 2 μM RNA, 10 μM compound; Tm alone 66.0 °C.

Assay [4] deals with KRAS RNA G4-b (RNA, G4) GGCGGCGGCAGUGGCGGCGG
The assay is described as follows: CD melting. The following applies: 1 mM K+; 10 mM Tris-HCl pH 7.4; 2 μM RNA, 10 μM compound; Tm alone 59.5 °C.

The subject of assay [5] is 5'-Cy5-labeled KRAS RG4 (G4-c) (RNA, G4) AAGGUGGCGGCGGCUCG
The assay is described as follows: fluorescence quenching titration of Cy5. Particulars: 100 mM K+; 10 mM Tris-HCl pH 7.4; 1 μM RNA.

Assay [6] deals with KRAS RNA G4-c (KRAS RG4) (RNA, G4) AAGGUGGCGGCGGCUCG
The assay is described as follows: 1H NMR, imino protons. Particulars: K+ (potassium phosphate, concentration not stated), 10% D2O, 25 °C, 200 μM RNA, 1 to 5 equivalents.

Assay [7] has as its system DNA hairpin (DNA, hairpin) CGCGCGCGTTTTCGCGCGCG
The assay is described as follows: competition: fluorescence recovery of MBD-quenched Cy5-labeled KRAS RG4. Particulars: 100 mM K+; 10 mM Tris-HCl pH 7.4; DNA hairpin added as competitor to 1 μM Cy5-G4-c with MBD.

The test system of assay [8] is RNA hairpin (RNA, hairpin) GGCCGCCGCAGUGGCGGCGG
Described as above. The following applies: 100 mM K+; 10 mM Tris-HCl pH 7.4; RNA hairpin added as competitor to 1 μM Cy5-G4-c with MBD.

Assay [9] deals with 3'-Cy5-labeled KRAS RG4 (G4-c) (RNA, G4) AAGGUGGCGGCGGCUCG
The assay is described as follows: fluorescence quenching titration of Cy5. Particulars: 100 mM K+; 10 mM Tris-HCl pH 7.4; 1 μM RNA.

Assay [10] concerns KRAS RNA G4-c (KRAS RG4) (RNA, G4) AAGGUGGCGGCGGCUCG
The assay is described as follows: EMSA. Particulars: 15% native PAGE, Tris-borate-EDTA; 10 μM RNA, 0-50 μM compound. For orientation: A gel shift assay detects complexes by their altered migration in electrophoresis.

For `CC1CCN(c2ccc3c(c2)c2cc(N4CCC(C)CC4)ccc2c2nc4cc5ccccc5cc4nc32)CC1`, the EC50 (usually the concentration that produces a half-maximal response) in assay [1] worked out at 45000 nM. In [2], the binding entry is “no”.

The compound `CC1CCN(c2ccc3c(c2)c2cc([N+]4(C)CCC(C)CC4)ccc2c2nc4cc(Cl)c(Cl)cc4nc32)CC1` (stereo not shown) showed an EC50 in assay [1] of 7000 nM. Besides, the binding entry in assay [2] is given as “weak”.

Turning to `CC1CCN(c2ccc3c(c2)c2cc([N+]4(C)CCC(C)CC4)ccc2c2nc4cc(F)c(F)cc4nc32)CC1` (stereo not shown), in [1], the EC50 was 3300 nM. Moreover, the binding result in assay [2] is on record as “weak”.

`CC1CCN(c2ccc3c(c2)c2cc([N+]4(C)CCC(C)CC4)ccc2c2nc4cc5ccccc5cc4nc32)CC1` (stereo not shown): the binding entry in assay [3] was “yes”; in assay [4], “yes”; in assay [5] it was “yes”; in assay [6] it was “yes”; in [7], “no”; in assay [8], “no”. The binding result in assay [9] and in assay [10] was “yes” each time. The same compound displayed an EC50 in [1] of 1500 nM. The ΔTm (usually the change in melting temperature against a reference sample) in assay [2] (10 μM compound, Tm alone 64.1 °C) came out at 11.0 °C.

In assay [1], `CC1CCN(c2ccc3c(c2)c2cc([N+]4(C)CCC(C)CC4)ccc2c2nc4ccccc4nc32)CC1` (stereo not shown) gave an EC50 of 1800 nM. The binding result in [2] is recorded as “weak”.

`COc1cc2nc3c4ccc(N5CCC(C)CC5)cc4c4cc([N+]5(C)CCC(C)CC5)ccc4c3nc2cc1OC` (stereo not shown) had an EC50 in assay [1] of 1400 nM. Besides, the binding entry in assay [2] is given as “yes”.

Take `Cc1cc2nc3c4ccc(N5CCC(C)CC5)cc4c4cc([N+]5(C)CCC(C)CC5)ccc4c3nc2cc1C` (stereo not shown): the EC50 in assay [1] came to 1500 nM. The binding result in [2] is listed as “yes”.
